# Results as given in patent US20260158152A1, “SPLICING MODULATOR ANTIBODY-DRUG CONJUGATES AND METHODS OF USE” (EISAI R&D MANAGEMENT CO., LTD., priority 2018, published 2026).
# What was measured:
# MOLP8 cells = assay: Cell viability, CD138-expressing MOLP8; type: cell-based; conditions: unconjugated payload of the ADC
# N87 cells = assay: Cell viability CellTiter-Glo, N87; type: cell-based, human; conditions: unconjugated payload of the ADC
# PC3 cells = assay: Cell viability, EPHA2-expressing PC3; type: cell-based; conditions: free payload of the ADC
# [1] = Caco-2 permeability of ADC payload; type: in vitro ADME; conditions: human, Caco-2; payload, apical to basolateral, 2 hours; read-out: Permeability Mean Caco-2 A-B Perm (10e−6 cm/s)
# Ad2.1 pre-mRNA splicing = assay: In vitro splicing (IVS) RT-qPCR, Ad2.1 pre-mRNA in HeLa S3 nuclear extract; type: biochemical; conditions: payload of the ADC; read-out: qPCR-IVS-ATS GMean IC50 (nM) Ad2.1
# Procedure: To evaluate payload activity in a cell-free system, an in vitro splicing assay was performed. The payloads were incubated with nuclear extracts and pre-mRNA substrate minigenes.
# HeLa nuclear extract preparation: HeLa S3 cell pellets were resuspended in hypotonic buffer (10 mM HEPES PH 7.9, 1.5 mM MgCl2, 10 mM KCl, 0.2 mM PMSF, 0.5 mM DTT) and the suspension was brought up to a total of 5 packed cell volume (PCV). After centrifugation, the supernatant was discarded, and the cells were brought up to 3 PCV with hypotonic buffer and incubated on ice for 10 min. Cells were lysed using a dounce homogenizer and then centrifuged. […]. The nuclei were gently mixed for 30 min before centrifuging. The supernatant (nuclear extract) was then dialyzed into storage buffer (20 mM HEPES pH 7.9, 100 mM KCl, 0.2 mM EDTA, 20% glycerol, 0.2 mM PMSF, 0.5 mM DTT). Protein concentration was determined using NanoDrop 8000 UV-Vis spectrophotometer (ThermoFisher Scientific).
# IVS: All Ad2-derived sequences (Pellizzoni et al. (1998) Cell 95 (5): 615-24) were cloned into pcDNA3.1(+) vector (Promega) using 5′ EcoRI and 3′ XbaI restriction sites. The plasmids were linearized using XbaI and used as DNA templates in in vitro transcription reactions. The FtzΔi intron-less plasmid (Luo and Reed (1999) 96 (26): 14937-42) was linearized using EcoRI. […]
# THP1.1 = assay: Payload cell potency and lethality CellTiter-Glo, THP1; type: cell-based; conditions: payload of the ADC
# Procedure: Each concentration was tested in triplicate. […] Values represent time zero (TO).
"Papp A→B at 2 h, 10 µM [1]",Structure (SMILES),Payload Rmin (%) (MOLP8 cells),Payload Rmin (%) (N87 cells),Payload Rmin (PC3 cells),IC50 (Ad2.1 pre-mRNA splicing),Payload cell lethality: CT..-ATS GMean LD50 (nM) THP1.1 (THP1.1)
0.08 ×10⁻⁶ cm/s,CC(=O)N1CCC(n2nnc3c(F)cc(/C=C(\C)[C@H]4OC(=O)C[C@H](O)CC[C@H](C)[C@@H](OC(=O)N5CCNCC5)/C=C/[C@@H]4C)cc32)CC1 [D14],−6.1%,−52.662%,−79.835%,,
,C/C(=C\c1cc(F)cc(N2CCN(C(=O)Cn3cccn3)CC2)c1)[C@H]1OC(=O)C[C@H](O)CC[C@H](C)[C@@H](OC(=O)N2CCNCC2)/C=C/[C@@H]1C [D16],,,,18 nM,21.48 nM
